Values of other authors, collected in patent US20070160667A1, “Controlled release formulation of divalproex sodium” (priority 2006, published 2007).
Where two headings read alike, the source gives them in different places.

Q: Which elimination half-life (in adults) does the source give for `CCCC(CCC)C(=O)O` [valproic acid, 2-Propylpentanoic acid] here?
A: The elimination half-life was “six and seventeen”.

Q: What about the elimination half-life (in children) of the same compound?
A: The elimination half-life was “four and fourteen”.
